Reference: ChEMBL document CHEMBL4715815, “Design, synthesis and biological evaluation of 7H-pyrrolo[2,3-d]pyrimidin-4-amine derivatives as selective Btk inhibitors with improved pharmacokinetic properties for the treatment of rheumatoid arthritis” (Eur J Med Chem, 2018)
Active and inactive are the calls of the source. The rule behind the calls is not given here.

How the values were obtained:
[1] = biological target: T1, Tyrosine-protein kinase BTK (Homo sapiens, UniProt Q06187); assay: Inhibition of BTK in human U2932 cells assessed as reduction in PLCgamma2 Y1217 phosphorylation at 0.03 to 10 uM incubated for 1 hr by Western blot analysis; format: cell-based; settings: dose 0.03-10 µM
[2] = Oral bioavailability in Sprague-Dawley rat at 3 mg/kg measured up to 24 hrs by LC-MS/MS analysis; format: ADME, organism-based; settings: in vivo
[3] = biological target: Tyrosine-protein kinase HCK (Homo sapiens, UniProt P08631); assay: Inhibition of HCK (unknown origin)
[4] = biological target: NT-3 growth factor receptor (Homo sapiens, UniProt Q16288); assay: Inhibition of TRKc (unknown origin)
[5] = biological target: Tyrosine-protein kinase JAK1 (Homo sapiens, UniProt P23458); assay: Inhibition of JAK1 (unknown origin)
[6] = biological target: T1, Tyrosine-protein kinase BTK
Description: Reversible inhibition of BTK (unknown origin) assessed as association rate constant by caliper mobility shift assay

[7] = Metabolic stability in dog liver microsomes assessed as half life at 100 uM/L measured upto 90 mins by LC-MS/MS analysis; format: ADME, Canis lupus familiaris, Microsome
Mus musculus [8] = assay: Antiarthritic activity in DBA/1J mouse model of collagen-induced arthritis assessed as reduction in edema formation at 20 mg/kg, po administered for 30 days and measured on day 30; format: functional, organism-based; settings: time 30.0 day
[9] = Volume of distribution in Sprague-Dawley rat at 3 mg/kg, po measured up to 24 hrs by LC-MS/MS analysis; format: ADME, organism-based; settings: in vivo
[10] = biological target: Ribosomal protein S6 kinase alpha-3 (Homo sapiens, UniProt P51812); assay: Inhibition of recombinant human RSK2 using Histone H3 full length as substrate incubate for 10 mins by LANCE assay
[11] = Inhibition of PKC (unknown origin); set-up: species or system Homo sapiens
HEK293 = assay: Cytotoxicity against human HEK293 cells assessed as reduction in cell viability incubated for 72 hrs by MTT assay; format: ADME, cell-based; settings: HEK293, 72 h
[12] = Toxicity in DBA/1J mouse assessed as effect on body weight at 20 mg/kg, po administered for 30 days and measured on day 30; format: organism-based; settings: in vivo, 720 h, time 30 day
[13] = Clearance in Sprague-Dawley rat at 3 mg/kg, po measured up to 24 hrs by LC-MS/MS analysis; format: ADME, organism-based; settings: in vivo
[14] = biological target: T1, Tyrosine-protein kinase BTK; assay: Inhibition of BTK in human U2932 cells assessed as reduction in BTK Y551 phosphorylation at 0.03 to 10 uM incubated for 1 hr by Western blot analysis; format: cell-based; settings: dose 0.03-10 µM
[15] = Toxicity in BALB/c mouse assessed as free movement at 2 g/kg, po measured after 7 days of administration; settings: in vivo, 168 h
[16] = Toxicity in BALB/c mouse assessed as mouse survival at 2 g/kg, po measured after 7 days of administration; settings: in vivo, 168 h
[17] = biological target: Ribosomal protein S6 kinase alpha-2 (Homo sapiens, UniProt Q15349); assay: Inhibition of RSK3 (unknown origin)
[18] = Toxicity in BALB/c mouse assessed as effect on sensitive to light at 2 g/kg, po measured after 7 days of administration; settings: in vivo, 168 h
[19] = Cmax in Sprague-Dawley rat at 3 mg/kg, iv measured up to 24 hrs by LC-MS/MS analysis; format: ADME, organism-based; set-up: route intravenous, dose 3 mg/kg, time <=24; settings: in vivo
[20] = biological target: Calcium/calmodulin-dependent protein kinase type II subunit beta (Homo sapiens, UniProt Q13554); assay: Inhibition of CAMK2 (unknown origin)
[21] = Toxicity in BALB/c mouse assessed as clinical signs at 2 g/kg, po measured after 7 days of administration; settings: in vivo, 168 h
[22] = biological target: Tyrosine-protein kinase CSK (Homo sapiens, UniProt P41240); assay: Inhibition of CSK (unknown origin)
[23] = biological target: Ribosomal protein S6 kinase alpha-1 (Homo sapiens, UniProt Q15418); assay: Inhibition of RSK1 (unknown origin)
[24] = Tmax in Sprague-Dawley rat at 3 mg/kg, po measured up to 24 hrs by LC-MS/MS analysis; format: ADME, organism-based; settings: in vivo
[25] = biological target: Macrophage colony-stimulating factor 1 receptor (Homo sapiens, UniProt P07333); assay: Inhibition of recombinant human FMS using Ulight-TK peptide as substrate incubate for 15 mins by LANCE assay
[26] = biological target: Serine/threonine-protein kinase mTOR (Homo sapiens, UniProt P42345); assay: Inhibition of mTOR (unknown origin)
Mus musculus [27] = assay: Antiarthritic activity in DBA/1J mouse model of collagen-induced arthritis assessed as reduction in paw thickness at 20 mg/kg, po administered for 30 days and measured on day 30; format: functional, organism-based; settings: time 30.0 day
[28] = biological target: Mitogen-activated protein kinase kinase kinase 2 (Homo sapiens, UniProt Q9Y2U5); assay: Inhibition of MEKK2 (unknown origin)
[29] = Metabolic stability in mouse liver microsomes assessed as intrinsic clearance at 100 uM/L measured upto 90 mins by LC-MS/MS analysis; format: ADME, Microsome; settings: 1.5 h
[30] = biological target: Mitogen-activated protein kinase kinase kinase 3 (Homo sapiens, UniProt Q99759); assay: Inhibition of MEKK3 (unknown origin)
[31] = biological target: Tyrosine-protein kinase JAK2 (Homo sapiens, UniProt O60674); assay: Inhibition of recombinant human JAK2 using Ulight-CAGAGAIETDKEYYTVKD as substrate incubate for 60 mins by LANCE assay
[32] = Clearance in Sprague-Dawley rat at 3 mg/kg, iv measured up to 24 hrs by LC-MS/MS analysis; format: ADME, organism-based; settings: in vivo
[33] = biological target: Proto-oncogene tyrosine-protein kinase Src (Homo sapiens, UniProt P12931); assay: Inhibition of recombinant human SRC using Ulight-Poly GAT[EAY(1:1:1)]n as substrate incubate for 10 mins by LANCE assay
[34] = biological target: T1, Tyrosine-protein kinase BTK; assay: Inhibition of BTK in human Raji cells assessed as reduction in BTK Y223 phosphorylation incubated for 1 hr by Western blot analysis; format: cell-based; settings: dose 0.03-10 µM
[35] = biological target: High affinity nerve growth factor receptor (Homo sapiens, UniProt P04629); assay: Inhibition of recombinant human TRKa using Ulight-Poly GAT[EAY(1:1:1)]n as substrate incubate for 10 mins by LANCE assay
[36] = Metabolic stability in monkey liver microsomes assessed as intrinsic clearance at 100 uM/L measured upto 90 mins by LC-MS/MS analysis; format: ADME, Macaca mulatta, Microsome; settings: rhesus monkey, 1.5 h
[37] = AUC (0 to t) in Sprague-Dawley rat at 3 mg/kg, iv measured up to 24 hrs by LC-MS/MS analysis; format: ADME, organism-based; set-up: route intravenous, dose 3 mg/kg, time <=24; settings: in vivo
[38] = biological target: Receptor tyrosine-protein kinase erbB-2 (Homo sapiens, UniProt P04626); assay: Inhibition of ErBB2 (unknown origin)
[39] = biological target: Tyrosine-protein kinase Fyn (Homo sapiens, UniProt P06241); assay: Inhibition of recombinant human FYN using biotinyl-beta Abeta-Abeta AYQAEENTYDEYEN as substrate incubate for 60 mins by LANCE assay
[40] = Metabolic stability in monkey liver microsomes assessed as half life at 100 uM/L measured upto 90 mins by LC-MS/MS analysis; format: ADME, Macaca mulatta, Microsome; settings: rhesus monkey

T1 sequence (Q06187 whole entry): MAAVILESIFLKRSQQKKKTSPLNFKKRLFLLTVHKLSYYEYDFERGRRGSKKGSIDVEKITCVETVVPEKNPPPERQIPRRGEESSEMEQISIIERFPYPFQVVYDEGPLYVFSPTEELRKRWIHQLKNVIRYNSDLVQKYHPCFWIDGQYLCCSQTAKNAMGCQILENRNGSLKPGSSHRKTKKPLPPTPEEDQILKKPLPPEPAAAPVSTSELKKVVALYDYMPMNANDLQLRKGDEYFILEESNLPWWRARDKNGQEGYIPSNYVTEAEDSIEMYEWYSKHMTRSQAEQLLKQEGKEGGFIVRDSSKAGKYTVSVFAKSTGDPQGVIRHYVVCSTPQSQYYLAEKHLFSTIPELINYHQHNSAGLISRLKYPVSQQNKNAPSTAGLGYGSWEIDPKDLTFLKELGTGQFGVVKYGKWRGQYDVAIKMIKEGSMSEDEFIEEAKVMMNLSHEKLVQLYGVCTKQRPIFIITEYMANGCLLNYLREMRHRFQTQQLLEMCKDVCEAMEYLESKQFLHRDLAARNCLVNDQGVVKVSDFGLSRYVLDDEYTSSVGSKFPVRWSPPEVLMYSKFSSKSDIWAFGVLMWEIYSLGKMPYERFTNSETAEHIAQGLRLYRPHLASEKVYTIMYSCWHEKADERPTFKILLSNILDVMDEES
Chain of Macrophage colony-stimulating factor 1 receptor (P07333 whole entry): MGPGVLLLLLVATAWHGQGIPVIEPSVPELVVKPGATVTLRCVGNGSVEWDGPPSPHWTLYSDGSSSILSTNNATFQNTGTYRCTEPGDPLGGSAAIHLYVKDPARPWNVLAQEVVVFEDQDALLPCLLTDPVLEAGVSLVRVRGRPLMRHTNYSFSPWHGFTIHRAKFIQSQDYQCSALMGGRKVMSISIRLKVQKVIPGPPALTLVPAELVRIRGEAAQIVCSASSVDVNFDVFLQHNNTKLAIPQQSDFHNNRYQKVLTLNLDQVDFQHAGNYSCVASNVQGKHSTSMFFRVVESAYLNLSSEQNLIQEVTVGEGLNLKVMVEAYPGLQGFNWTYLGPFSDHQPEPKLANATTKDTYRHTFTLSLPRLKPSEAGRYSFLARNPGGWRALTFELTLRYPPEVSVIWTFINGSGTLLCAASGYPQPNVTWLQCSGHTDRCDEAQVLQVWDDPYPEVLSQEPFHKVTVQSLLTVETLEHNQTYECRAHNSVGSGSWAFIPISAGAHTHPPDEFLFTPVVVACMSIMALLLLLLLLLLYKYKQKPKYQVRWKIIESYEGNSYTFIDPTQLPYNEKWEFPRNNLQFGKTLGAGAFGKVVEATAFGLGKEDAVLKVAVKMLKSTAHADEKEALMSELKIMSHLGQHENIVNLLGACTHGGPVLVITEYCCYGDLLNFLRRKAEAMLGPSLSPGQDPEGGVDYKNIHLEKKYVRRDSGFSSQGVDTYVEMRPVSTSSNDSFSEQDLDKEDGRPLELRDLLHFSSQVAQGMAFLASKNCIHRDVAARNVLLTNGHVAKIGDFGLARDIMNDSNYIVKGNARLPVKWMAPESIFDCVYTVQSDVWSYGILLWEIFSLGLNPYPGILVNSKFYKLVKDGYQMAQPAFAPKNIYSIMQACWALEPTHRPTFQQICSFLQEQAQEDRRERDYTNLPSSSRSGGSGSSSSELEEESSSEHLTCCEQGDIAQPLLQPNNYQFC
Chain of Tyrosine-protein kinase Fyn (P06241 whole entry): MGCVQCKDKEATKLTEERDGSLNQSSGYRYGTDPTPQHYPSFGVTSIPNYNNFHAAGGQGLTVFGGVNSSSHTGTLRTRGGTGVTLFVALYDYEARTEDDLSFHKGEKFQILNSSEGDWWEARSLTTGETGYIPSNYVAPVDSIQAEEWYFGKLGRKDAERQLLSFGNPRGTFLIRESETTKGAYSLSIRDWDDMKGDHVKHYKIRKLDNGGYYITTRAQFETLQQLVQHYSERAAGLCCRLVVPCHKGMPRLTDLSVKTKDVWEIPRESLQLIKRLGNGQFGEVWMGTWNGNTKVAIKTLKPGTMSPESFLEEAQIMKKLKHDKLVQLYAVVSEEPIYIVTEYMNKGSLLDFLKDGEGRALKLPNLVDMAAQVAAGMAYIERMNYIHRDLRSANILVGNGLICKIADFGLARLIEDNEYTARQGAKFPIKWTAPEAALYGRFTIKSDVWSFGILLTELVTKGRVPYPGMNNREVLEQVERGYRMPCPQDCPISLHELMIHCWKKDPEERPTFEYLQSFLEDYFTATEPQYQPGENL
Chain of Tyrosine-protein kinase JAK2 (O60674 whole entry): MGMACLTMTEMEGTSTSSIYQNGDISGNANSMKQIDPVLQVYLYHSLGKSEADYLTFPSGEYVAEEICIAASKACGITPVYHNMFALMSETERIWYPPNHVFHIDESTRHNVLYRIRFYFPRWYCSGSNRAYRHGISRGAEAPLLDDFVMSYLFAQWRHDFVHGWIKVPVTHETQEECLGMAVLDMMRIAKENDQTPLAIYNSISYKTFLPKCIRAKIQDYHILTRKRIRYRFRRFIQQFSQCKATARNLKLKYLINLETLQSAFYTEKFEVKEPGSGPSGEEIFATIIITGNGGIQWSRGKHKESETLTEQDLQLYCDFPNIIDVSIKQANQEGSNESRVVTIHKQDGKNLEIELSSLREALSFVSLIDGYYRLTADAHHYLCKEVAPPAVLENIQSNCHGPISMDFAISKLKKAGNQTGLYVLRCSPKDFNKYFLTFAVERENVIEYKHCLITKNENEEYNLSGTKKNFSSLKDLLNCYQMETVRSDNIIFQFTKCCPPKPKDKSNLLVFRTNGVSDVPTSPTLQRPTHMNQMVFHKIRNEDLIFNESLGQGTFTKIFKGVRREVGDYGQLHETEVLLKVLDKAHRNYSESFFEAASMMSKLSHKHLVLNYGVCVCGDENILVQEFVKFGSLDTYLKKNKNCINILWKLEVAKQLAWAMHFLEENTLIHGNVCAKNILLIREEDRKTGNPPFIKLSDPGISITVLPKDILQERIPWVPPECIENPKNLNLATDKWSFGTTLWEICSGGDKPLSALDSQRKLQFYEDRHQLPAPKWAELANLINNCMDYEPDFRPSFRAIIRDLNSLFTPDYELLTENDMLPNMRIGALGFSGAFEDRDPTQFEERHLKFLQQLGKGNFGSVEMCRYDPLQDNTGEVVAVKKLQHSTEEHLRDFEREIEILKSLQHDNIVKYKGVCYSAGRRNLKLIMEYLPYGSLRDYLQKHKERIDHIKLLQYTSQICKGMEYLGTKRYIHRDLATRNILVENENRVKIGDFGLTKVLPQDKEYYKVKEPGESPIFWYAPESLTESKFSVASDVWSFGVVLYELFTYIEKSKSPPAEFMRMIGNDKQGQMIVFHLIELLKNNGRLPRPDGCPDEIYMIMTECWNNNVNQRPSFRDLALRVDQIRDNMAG
Chain of High affinity nerve growth factor receptor (P04629 whole entry): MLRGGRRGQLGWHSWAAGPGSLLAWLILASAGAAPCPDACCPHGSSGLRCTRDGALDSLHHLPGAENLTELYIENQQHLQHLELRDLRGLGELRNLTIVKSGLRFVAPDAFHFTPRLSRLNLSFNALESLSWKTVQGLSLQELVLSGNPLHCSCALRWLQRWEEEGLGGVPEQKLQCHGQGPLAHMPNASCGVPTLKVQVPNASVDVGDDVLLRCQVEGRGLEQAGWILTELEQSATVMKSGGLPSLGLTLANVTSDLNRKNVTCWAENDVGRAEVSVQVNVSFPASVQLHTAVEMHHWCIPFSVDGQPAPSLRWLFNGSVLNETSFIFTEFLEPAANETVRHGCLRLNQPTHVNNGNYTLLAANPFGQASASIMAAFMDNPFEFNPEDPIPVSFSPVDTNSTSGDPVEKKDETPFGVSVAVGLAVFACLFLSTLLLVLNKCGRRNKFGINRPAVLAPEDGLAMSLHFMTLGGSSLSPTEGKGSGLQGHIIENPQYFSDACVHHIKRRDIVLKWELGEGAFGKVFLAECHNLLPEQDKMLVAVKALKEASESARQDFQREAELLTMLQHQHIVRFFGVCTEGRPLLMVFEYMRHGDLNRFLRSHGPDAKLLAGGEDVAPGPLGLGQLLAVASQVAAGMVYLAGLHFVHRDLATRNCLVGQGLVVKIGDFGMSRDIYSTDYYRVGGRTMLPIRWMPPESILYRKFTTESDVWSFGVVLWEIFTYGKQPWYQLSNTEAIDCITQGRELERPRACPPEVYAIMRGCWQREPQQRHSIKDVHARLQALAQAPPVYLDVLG
Chain of Proto-oncogene tyrosine-protein kinase Src (P12931 2-536 limits assumed): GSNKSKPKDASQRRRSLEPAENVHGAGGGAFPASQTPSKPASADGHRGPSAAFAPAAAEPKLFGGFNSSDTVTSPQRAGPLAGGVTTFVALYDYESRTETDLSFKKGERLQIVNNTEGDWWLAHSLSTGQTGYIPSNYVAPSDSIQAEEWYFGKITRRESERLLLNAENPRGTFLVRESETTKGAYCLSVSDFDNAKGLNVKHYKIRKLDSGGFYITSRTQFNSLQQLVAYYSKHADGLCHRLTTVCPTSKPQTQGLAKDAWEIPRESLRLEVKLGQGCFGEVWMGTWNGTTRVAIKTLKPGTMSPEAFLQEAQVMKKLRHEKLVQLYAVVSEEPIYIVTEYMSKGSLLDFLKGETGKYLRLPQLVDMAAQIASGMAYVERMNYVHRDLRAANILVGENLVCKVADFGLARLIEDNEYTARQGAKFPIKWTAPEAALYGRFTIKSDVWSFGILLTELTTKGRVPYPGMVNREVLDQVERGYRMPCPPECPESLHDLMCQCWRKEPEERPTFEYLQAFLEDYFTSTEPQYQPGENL

For C=CC(=O)N1CCC(Cn2cc(-c3ccc4c(c3)OCO4)c3c(N)ncnc32)CC1, the inhibition [1] was “Active”, the bioavailability [2] was 49.1% and the IC50 [3] was 1.11 µM. It also gave an IC50 [4] greater than 10 µM, an IC50 [5] greater than 10 µM and a Ka [6] of 9630 M⁻¹ s⁻¹. For the same compound, the half-life at 100 µM [7] was 5.25 h, the Activity (Mus musculus [8]) was “Active” and the Vd [9] was 26.15 L/kg. The IC50 [10] was greater than 10 µM, the IC50 [11] was greater than 10 µM and the IC50 (HEK293) was 34.2 µM. For the same compound, the Activity [12] was “Non-Toxic”, the CL/F [13] was 45.8 mL/min/kg and the inhibition [14] was “inactive”. The Activity [15] was “Non-Toxic”, the Activity [16] was “Non-Toxic” and the IC50 [17] was greater than 10 µM. For the same compound, the Activity [18] was “Non-Toxic”, the Cmax [19] was 3130 ng/mL and the IC50 [20] was greater than 10 µM. For the same compound, the Activity [21] was “Non-Toxic”, the IC50 [22] was greater than 10 µM and the IC50 [23] was greater than 10 µM. The Tmax [24] was 0.96 h, the IC50 [25] was greater than 10 µM and the IC50 [26] was greater than 10 µM. The Activity (Mus musculus [27]) was “Active”, the IC50 [28] was greater than 10 µM and the CLH [29] was 5.4 µL/min/mg. For the same compound, the IC50 [30] was greater than 10 µM, the IC50 [31] was greater than 10 µM and the CL [32] was 137 mL/min/kg. For the same compound, the IC50 [33] was 1 µM, the inhibition [34] was “Dose-dependent effect” and the IC50 [35] was greater than 10 µM. The CLH [36] was 8.2 µL/min/mg, the AUCt [37] was 2522.28 ng·h/mL and the IC50 [38] was greater than 10 µM. It also gave an IC50 [39] of 1.01 µM and a half-life at 100 µM [40] of 2.82 h.
